Consider 82 molecules from PubChem BioAssay AID488879 (Sanford-Burnham Center for Chemical Genomics, 2010).

The target of this assay is alkaline phosphatase, placental type (Homo sapiens). Put plainly: inhibition of placental alkaline phosphatase – biochemical, uHTS hits, selectivity assay for mouse IAP inhibitor project, dose response (AID 488879). The settings on record: purified human placental alkaline phosphatase, enzymatic inhibition.

Calls of active or inactive are those of the source. The rule behind the calls is not given here.

As to `COCc1ccc(CN2CCC(C(=O)Nc3cccc(-c4cccc(Cl)c4)c3)CC2)o1`, the IC50 is > 100 µM (inactive).

Take `C#CCOCCOCCOCCNc1nc(N2CCN(C(=O)CCCCCCCCCCNC(=O)[C@H](CO)n3cc(CCCSC)nn3)CC2)nc(N2CCN(C(=O)CCCCCCCCCCNC(=O)[C@H](CCCN=C(N)N)n3cc(C[C@@H](C)CC)nn3)CC2)n1`: the IC50 is > 100 µM (inactive).

As to `CCOC(=O)c1ccc(N2CCN(c3ccccc3F)CC2)c(NC(=O)Nc2ccccc2)c1`, the IC50 is > 100 µM (inactive).

Turning to `O=c1[nH]c2ccc(S(=O)(=O)N3CCCCC3)cc2o1`, the IC50 was > 100 µM (inactive).

For the molecule `COc1ccc(N2C(=O)/C(=C/c3ccco3)C(=O)NC2=S)cc1`, the IC50 is 64.9 µM.

On to `O=C(Nc1ccc(Cl)cc1)NC1CCCCC1Cc1ccco1` (configuration not stated), for which the IC50 was > 100 µM (inactive).

Consider `O=C(CN1C(=O)/C(=C/c2ccco2)SC1=S)Nc1ccc(O)c(C(=O)O)c1`, for which the IC50 is 17.2 µM.

With `CCOc1ccccc1CNC(=O)CCNS(=O)(=O)c1ccc2[nH]c(=O)oc2c1`, the IC50 is > 100 µM (inactive).

Turning to `COc1cc(NS(=O)(=O)c2ccc(NC(=S)NC(=O)/C=C/c3ccco3)cc2)ncn1`, the IC50 was 55.1 µM.

As to `Oc1cc(O)c2c(c1)OC(c1ccc(O)c(O)c1)C(O)C2` (configuration not stated), the IC50 is > 100 µM (inactive).

Regarding `N#Cc1c(SCC(=O)Nc2nccs2)sc2c(O)cc(=O)[nH]c12`, the IC50 was > 100 µM (inactive).

`O=c1ccc2c(-c3ccccc3S(=O)(=O)O)c3ccc(O)c(O)c3oc-2c1O`: the IC50 was > 100 µM (inactive).

On to `O=C1/C(=C/c2ccc(O)c(O)c2)Oc2cc(O)ccc21`, for which the IC50 is 67.2 µM.

For `O=C(NCCCCc1ccccc1)NC[C@@H]1CC[C@@H](Cc2ccc(-c3ccccc3)cc2)O1`, the IC50 was 6.58 µM.

Consider `COc1cc(/C=N/N2C(=O)CSC2=S)ccc1O`, for which the IC50 was > 100 µM (inactive).

For the molecule `O=C(O)CNS(=O)(=O)c1ccc2c3c(cccc13)C(=O)N2`, the IC50 was > 100 µM (inactive).

Take `COc1cc(/C=C/[N+](=O)[O-])ccc1OC(=O)c1cc2ccccc2oc1=O`: the IC50 is > 100 µM (inactive).

For `Cc1cc(C)cc(NC(=S)NC2CC3CCCC(C2)N3Cc2cccs2)c1` (configuration not stated), the IC50 is 42 µM.

For the molecule `COc1ccc(C(=O)OCC(=O)Nc2ncc([N+](=O)[O-])s2)cc1OC`, the IC50 is > 100 µM (inactive).

As for `O=C(N/N=C/c1cccnc1)c1cc(O)c(O)c(O)c1`, the IC50 is > 100 µM (inactive).

Turning to `COc1ccc(C2CC(c3ccccc3Cl)=NN2c2ccc(S(N)(=O)=O)cc2)cc1` (configuration not stated), the IC50 is > 100 µM (inactive).

Consider `CCc1cc(Cn2nc(-c3ccccc3)cc2C(=O)NCc2cccc(Br)c2)on1`, for which the IC50 was > 100 µM (inactive).

On to `O=C(NN1C(=O)CSC1=S)C(=O)NN1C(=O)CSC1=S`, for which the IC50 is > 100 µM (inactive).

Regarding `O=S(=O)(c1ccc(NC(=S)N/N=C/c2ccc(O)c(O)c2)cc1)N1CCOCC1`, the IC50 is 2.35 µM.

As for `COC(=O)c1ccc(NS(=O)(=O)c2ccc3[nH]c(=O)oc3c2)cc1`, the IC50 is > 100 µM (inactive).

Turning to `C#CCOCCOCCOCCNc1nc(N2CCN(C(=O)CCCCCCCCCCNC(=O)Cn3cc(C[C@@H](C)O)nn3)CC2)nc(N2CCN(C(=O)CCCCCCCCCCNC(=O)[C@H](CCCCN)n3cc(C[C@@H](C)CC)nn3)CC2)n1`, the IC50 was > 100 µM (inactive).

`CC(C)=CCc1c(O)c(CC=C(C)C)c2c(c1O)-c1cc(O)c(O)cc1CC2`: the IC50 is > 100 µM (inactive).

`Cn1nc([N+](=O)[O-])nc1S(C)(=O)=O`: the IC50 is > 100 µM (inactive).

`COc1cc(/C=C/C(O)=C/C(=O)/C=C/c2ccc(O)cc2)ccc1O`: the IC50 was > 100 µM (inactive).

In the case of `C#CCOCCOCCOCCNc1nc(N2CCN(C(=O)CCCCCCCCCCNC(=O)Cn3cc(C[C@@H](C)O)nn3)CC2)nc(N2CCN(C(=O)CCCCCCCCCCNC(=O)[C@@H](CCSC)n3cc(CCO)nn3)CC2)n1`, the IC50 was 39.9 µM.

Turning to `Cc1ccc(C)c(NS(=O)(=O)c2ccc3[nH]c(=O)oc3c2)c1`, the IC50 was > 100 µM (inactive).

Turning to `Cc1cc(F)ccc1S(=O)(=O)Nc1ccc(O)c(Sc2ncn[nH]2)c1`, the half-inhibitory concentration (IC50) was 6.94 µM.

For `FC(F)Oc1ccc(NC(=S)NC2CCSc3ccccc32)cc1` (configuration not stated), the IC50 was > 100 µM (inactive).

As for `CN1C(=O)/C(=C/C=C/c2ccco2)C(=O)NC1=S`, the IC50 was 24.4 µM.

With `Cc1ccc(N/C(N)=N/c2nc(C)cc(N3CCCCC3)n2)c(C)c1`, the IC50 was 26.3 µM.

On to `N#Cc1c(SCC(=O)Nc2nncs2)sc2c(O)cc(=O)[nH]c12`, for which the IC50 was > 100 µM (inactive).

In the case of `NS(=O)(=O)c1cccc(NC(=O)CSc2nnc(-c3ccncc3)n2C2CC2)c1`, the IC50 was > 100 µM (inactive).

As to `CN(c1ccccc1C(=O)O)S(=O)(=O)c1ccc2c3c(cccc13)C(=O)N2`, the IC50 is > 100 µM (inactive).

As for `O=C1/C(=C\c2cccc(O)c2O)SC(=S)N1Cc1ccccc1`, the IC50 was > 100 µM (inactive).

As for `NC1=NC(=O)/C(=C\c2ccco2)S1`, the IC50 is 32 µM.

On to `O=C(Nc1cccc(-c2cccc(Cl)c2)c1)C1CCN(C2CCC2)CC1`, for which the IC50 was 10.2 µM.

In the case of `COc1cccc(NC(=O)CN(C)S(=O)(=O)c2ccc3[nH]c(=O)oc3c2)c1`, the IC50 is > 100 µM (inactive).

As for `O=C(CSc1ncn[nH]1)CSc1ncn[nH]1`, the IC50 was 23 µM.

Take `O=C1N=c2ccccc2=C1c1sc(=S)n(NC(=O)c2ccccc2)c1O`: the IC50 is 5.31 µM.

For the molecule `C#CCOCCOCCOCCNc1nc(N2CCN(C(=O)CCCCCCCCCCNC(=O)Cn3cc(CCCCCN)nn3)CC2)nc(N2CCN(C(=O)CCCCCCCCCCNC(=O)[C@@H](CCSC)n3cc(CCO)nn3)CC2)n1`, the IC50 is > 100 µM (inactive).

As for `CN=c1scc(-c2ccco2)n1/N=C/c1ccc(O)c(O)c1`, the IC50 was > 100 µM (inactive).

As for `O=C1c2cccc(O)c2C(=O)c2c(O)cc(CO)cc21`, the IC50 is > 100 µM (inactive).

Regarding `CCn1nc(C)c(CN2CCC(C(=O)Nc3cccc(-c4cccc(Cl)c4)c3)CC2)c1C`, the IC50 is > 100 µM (inactive).

Take `N#C/C(=C\c1ccc(O)c(O)c1)C(=O)Nc1cccc2ncccc12`: the IC50 is 7.32 µM.

On to `C#CCOCCOCCOCCNc1nc(N2CCN(C(=O)CCCCCCCCCCNC(=O)[C@@H](CCSC)n3cc(CCO)nn3)CC2)nc(N2CCN(C(=O)CCCCCCCCCCNC(=O)[C@H]([C@@H](C)CC)n3cc(CCCCN=C(N)N)nn3)CC2)n1`, for which the IC50 is > 100 µM (inactive).

As to `Cc1cccnc1Nc1nc(-c2ccc(O)c(O)c2)cs1`, the IC50 was > 100 µM (inactive).

For `OCCCN1c2ccccc2Nc2nnc(-c3ccccc3)cc21`, the IC50 was > 100 µM (inactive).

As to `CCOc1ccc(S(=O)(=O)Nc2cc(Sc3ncn[nH]3)c3oc(=O)sc3c2)cc1`, the IC50 is > 100 µM (inactive).

On to `O=C(NN1C(=O)/C(=C/c2ccc(O)cc2)SC1=S)c1ccccc1O`, for which the IC50 was > 100 µM (inactive).

Consider `COC(=O)C/C=N/N=C1/NC(=O)/C(=C/C(=O)O)S1`, for which the IC50 was 8.44 µM.

For the molecule `CC(C(=O)O)N1C(=O)/C(=C/C=C/c2ccco2)SC1=S` (configuration not stated), the IC50 was > 100 µM (inactive).

Consider `O=C1CC(c2ccc(O)c(O)c2)Oc2c1ccc(O)c2O` (configuration not stated), for which the IC50 was > 100 µM (inactive).

With `CCN1/C(=C/C=C/c2sc3ccccc3[n+]2CC)Sc2ccccc21`, the IC50 is > 100 µM (inactive).

With `Oc1cc(O)c2c(c1)O[C@H](c1ccc(O)c(O)c1)[C@@H](O)C2`, the IC50 was > 100 µM (inactive).

On to `CCCCCOc1ccc(C(=O)CCC(=O)NNC(=O)c2ccncc2)cc1`, for which the IC50 is > 100 µM (inactive).

Turning to `COc1cc(/C=N/NC(=O)c2cc(O)cc(O)c2)ccc1OC(=O)c1ccccc1`, the IC50 was 70.1 µM.

On to `Cc1ccc(S(=O)(=O)N2CCC(C(=O)Nc3ccc(C(C)C)cc3)CC2)cc1`, for which the IC50 was > 100 µM (inactive).

Consider `Cc1cc(O)c(Sc2ncn[nH]2)cc1NS(=O)(=O)c1ccc(Cl)cc1`, for which the IC50 was > 100 µM (inactive).

For the molecule `N#Cc1c(SCC(=O)Nc2nc3ccccc3s2)sc2c(O)cc(=O)[nH]c12`, the IC50 was > 100 µM (inactive).

As for `CC(C)(C)c1ccc(O)c(N=Cc2cc3c(cc2[N+](=O)[O-])OCO3)c1`, the IC50 is > 100 µM (inactive).

Consider `O=C(c1c(O)cc(O)cc1O)C1c2c(cc(O)c3c2O[C@H](c2ccc(O)cc2)[C@@H](O)C3)OC1c1ccc(O)cc1` (some centres not stated), for which the IC50 was 23.2 µM.

As for `O=C1CNC(=S)N1CCc1ccc(O)c(O)c1`, the IC50 was > 100 µM (inactive).

As to `Cc1ccc(S(=O)(=O)Nc2ccc(O)c(Sc3ncn[nH]3)c2)cc1`, the IC50 is > 100 µM (inactive).

As for `COc1cc(OC)c2c(c1O)OC(c1ccccc1)CC2=O` (configuration not stated), the IC50 is > 100 µM (inactive).

Turning to `COc1ccc(CN2C3CCCC2CC(NC(=O)Nc2cccc(C)c2)C3)cc1` (configuration not stated), the IC50 is 30.5 µM.

Turning to `CCn1c(SCC(=O)c2ccc(O)c(O)c2)nnc1-c1ccccc1OC`, the IC50 is > 100 µM (inactive).

In the case of `Cc1c(Cl)cccc1NC(=S)NCCC(c1ccccc1)c1ccccc1`, the IC50 was > 100 µM (inactive).

In the case of `C=CCn1cc(CN2CCC(C(=O)Nc3cccc(-c4cccc(Cl)c4)c3)CC2)c(C)n1`, the IC50 is 34.3 µM.

As to `Oc1ccc(-c2csc(Nc3cccc4ccccc34)n2)cc1O`, the IC50 was > 100 µM (inactive).

For `Cc1ccc(CNC(=S)NC2CCC(C(C)(C)C)CC2)cc1` (configuration not stated), the IC50 is > 100 µM (inactive).

For `Cc1ccc(/C=C2\SC(=S)N(/N=C/c3cc([N+](=O)[O-])ccc3O)C2=O)o1`, the IC50 is > 100 µM (inactive).

On to `O=[N+]([O-])c1ccccc1NC(=S)N/N=C/c1ccc(O)c(O)c1`, for which the IC50 is > 100 µM (inactive).

`CCOC(=O)c1ccc(N2CCN(c3ccccc3F)CC2)c(NC(=O)Nc2cccc(OC)c2)c1`: the IC50 was > 100 µM (inactive).

As for `Cc1nonc1C(=O)N/N=C/c1ccc(O)c(O)c1`, the IC50 was 18 µM.

Regarding `O=C(COC(=O)COc1ccccc1)Nc1ncc([N+](=O)[O-])s1`, the IC50 was > 100 µM (inactive).

Consider `Cc1ccc(CN2C3CCCC2CC(NC(=O)Nc2cccc(F)c2)C3)cc1` (configuration not stated), for which the IC50 was > 100 µM (inactive).

Consider `Cc1ccc(NC(=S)NCc2ccccc2)cc1S(=O)(=O)N1CCCCC1`, for which the IC50 is > 100 µM (inactive).
